This is an account of results in ChEMBL document CHEMBL1154517, “Antimitotic activity of two macrocyclic bis(bibenzyls), isoplagiochins A and B from the Liverwort Plagiochila fruticosa” (Bioorg Med Chem Lett, 2009).

This experiment in a line: Inhibition of tubulin polymerization.
`Oc1ccc2c(c1)CCc1ccc(O)c(c1)-c1cc(ccc1O)CCc1cccc(c1)O2` [DIHYDROISOPLAGIOCHIN A] came in with an IC50 of more than 100 µM. Compound `Oc1ccc2cc1-c1cc(ccc1O)CCc1c(ccc(O)c1O)Oc1cccc(c1)CC2` [DIHYDROISOPLAGIOCHIN B] displayed an IC50 of more than 100 µM.

`Oc1ccc2c(c1)CCc1ccc(O)c(c1)-c1cc(ccc1O)/C=C\c1cccc(c1)O2` [ISOPLAGIOCHIN A] returned an IC50 of 50 µM. That is a double-digit micromolar value. As for `Oc1ccc2cc1-c1cc(ccc1O)CCc1c(ccc(O)c1O)Oc1cccc(c1)/C=C\2` [ISOPLAGIOCHIN B], the Activity entry is “Dose-dependent effect” and inhibition was half-maximal at 25 µM (IC50). Compound `CC[C@]1(O)C[C@@H]2CN(CCc3c([nH]c4ccccc34)[C@@](C(=O)OC)(c3cc4c(cc3OC)N(C)[C@H]3[C@@](O)(C(=O)OC)[C@H](OC(C)=O)[C@]5(CC)C=CCN6CC[C@]43[C@@H]65)C2)C1` [VINBLASTINE] registered an IC50 of 2 µM.
